Tested on: Energy system protein genes
Test: DNA chip mRNA expression in yeast, energy system protein genes (Table 4)
Assay type: cell-based, Saccharomyces cerevisiae S288C
Method: Yeast (Saccharomyces cerevisiae S288C (α SUC2mal mel gap2 CUP1)) were incubated at 25° C. on YPD medium (yeast extract 1%, polypepton 2%, glucose 2%). One of toxic chemical substances was added to the cells at logarithmic growth phase, and the cells were further incubated for two hours. Cells were cultured without any chemical substance in the same condition, and were used as control. Concentrations of the chemical substances were defined to inhibit the growth of the yeast but not lead to death.
After completion of the incubation, the culture was centrifuged to collect the cells. To the cells, sodium acetate buffer (50 mM sodium acetate, 10 mM EDTA, 1% SDS) was added, and the mixture was shaken at 65° C. for five minutes, followed by returning to room temperature, and obtaining the supernatant, of which the procedures were repeated two times. To the supernatant, ½ amount of a solution of phenol/chloroform was added, and the mixture was centrifuged to give a supernatant, which was added with an equal amount of chloroform, and the mixture was centrifuged to give a supernatant. To the supernatant, an equal amount of isopropanol containing 0.3 M sodium acetate was added, and the mixture was allowed to stand at room temperature for 30 minutes, after which the mixture was centrifuged to give a sediment of the whole RNAs. Seventy % ethanol was added to the sediment, and the mixture was again centrifuged to give a sediment, which was then dried and dissolved in water. mRNA was isolated from the whole RNAs as followings. In view of the fact that a poly A chain is attached to the 3′ terminus of mRNA, a polynucleotide having a poly T structure which was immobilized on the surface of latex beads was used to trap the mRNA, and then the mRNA was washed and eluted with spine column (Oligotex-dT30<Super>mRNA Purification Kit, Takara). Reverse transcription of the mRNA was conducted with a reverse transcriptase (Super Script II Reverse Transcriptase; catalogue No. 18064-014, GibcoBRL) using fluorescence-labeled nucleotides to give cDNAs that were introduced with Cy3-dUTP or Cy5-dUTP during the reverse transcription.
The labeled cDNAs were dissolved in TE buffer (10mM Tris-HCl/1 mM EDTA, pH8.0), and the solution was dropped on the DNA chip containing the whole genes of yeast (DNA Chip Research Inc. Japan) so that the cDNAs were hybridized on the DNA chip at 65° C. for over 12 hours. The fluoresces intensity of the DNA chip was read with a scanner, and the ratio relative to the fluorescence intensity resulting from the absence of chemical substance was estimated as the following, which is shown in Tables 1 to 9: […]

C[S+](C)[O-] [(15), dimethylsulfoxide]
The level of expressed mRNA in the presence of chemical substance/The level of expressed mRNA in the absence of chemical substance (yeast gene YJL052W): 2.3 | The level of expressed mRNA in the presence of chemical substance/The level of expressed mRNA in the absence of chemical substance (yeast gene YJL166W, cells incubated two hours with the chemical substance): 0.5 | The level of expressed mRNA in the presence of chemical substance/The level of expressed mRNA in the absence of chemical substance (yeast gene YJR009C): 2.1 | The level of expressed mRNA in the presence of chemical substance/The level of expressed mRNA in the absence of chemical substance (yeast gene YJR048W): 0.6 | The level of expressed mRNA in the presence of chemical substance/The level of expressed mRNA in the absence of chemical substance (yeast gene YJR155W): 2.6 | The level of expressed mRNA in the presence of chemical substance/The level of expressed mRNA in the absence of chemical substance (yeast gene YKL016C, cells incubated two hours with the chemical substance): 0.7 | The level of expressed mRNA in the presence of chemical substance/The level of expressed mRNA in the absence of chemical substance (yeast gene YKL035W): 1.0 | The level of expressed mRNA in the presence of chemical substance/The level of expressed mRNA in the absence of chemical substance (yeast gene YKL060C, cells incubated two hours with the chemical substance): 1.6 | The level of expressed mRNA in the presence of chemical substance/The level of expressed mRNA in the absence of chemical substance (yeast gene YKL085W, cells incubated two hours with the chemical substance): 0.5 | The level of expressed mRNA in the presence of chemical substance/The level of expressed mRNA in the absence of chemical substance (yeast gene YKL150W): 0.9 | The level of expressed mRNA in the presence of chemical substance/The level of expressed mRNA in the absence of chemical substance (yeast gene YKL152C): 1.8 | The level of expressed mRNA in the presence of chemical substance/The level of expressed mRNA in the absence of chemical substance (yeast gene YKR058W, cells incubated two hours with the chemical substance, 25° C., YPD medium): 0.5 | The level of expressed mRNA in the presence of chemical substance/The level of expressed mRNA in the absence of chemical substance (yeast gene YKR097W): 2.5 | The level of expressed mRNA in the presence of chemical substance/The level of expressed mRNA in the absence of chemical substance (yeast gene YLL041C, cells incubated two hours with the chemical substance): 0.4 | The level of expressed mRNA in the presence of chemical substance/The level of expressed mRNA in the absence of chemical substance (yeast gene YLR038C, cells incubated two hours with the chemical substance): 0.7 | The level of expressed mRNA in the presence of chemical substance/The level of expressed mRNA in the absence of chemical substance (yeast gene YLR164W, cells incubated two hours with the chemical substance): 0.7 | The level of expressed mRNA in the presence of chemical substance/The level of expressed mRNA in the absence of chemical substance (yeast gene YLR174W, cells incubated two hours with the chemical substance): 0.8 | The level of expressed mRNA in the presence of chemical substance/The level of expressed mRNA in the absence of chemical substance (yeast gene YLR273C): 2.6 | The level of expressed mRNA in the presence of chemical substance/The level of expressed mRNA in the absence of chemical substance (yeast gene YLR295C, cells incubated two hours with the chemical substance, 25° C., YPD medium): 0.5 | The level of expressed mRNA in the presence of chemical substance/The level of expressed mRNA in the absence of chemical substance (yeast gene YLR304C, cells incubated two hours with the chemical substance): 1.6 | The level of expressed mRNA in the presence of chemical substance/The level of expressed mRNA in the absence of chemical substance (yeast gene YLR345W): 1.0 | The level of expressed mRNA in the presence of chemical substance/The level of expressed mRNA in the absence of chemical substance (yeast gene YLR377C, cells incubated two hours with the chemical substance): 0.8 | The level of expressed mRNA in the presence of chemical substance/The level of expressed mRNA in the absence of chemical substance (yeast gene YLR395C, cells incubated two hours with the chemical substance): 0.4 | The level of expressed mRNA in the presence of chemical substance/The level of expressed mRNA in the absence of chemical substance (yeast gene YML054C): 1.1 | The level of expressed mRNA in the presence of chemical substance/The level of expressed mRNA in the absence of chemical substance (yeast gene YML087C): 0.3 | The level of expressed mRNA in the presence of chemical substance/The level of expressed mRNA in the absence of chemical substance (yeast gene YML100W): 1.8 | The level of expressed mRNA in the presence of chemical substance/The level of expressed mRNA in the absence of chemical substance (yeast gene YML120C, cells incubated two hours with the chemical substance): 0.5 | The level of expressed mRNA in the presence of chemical substance/The level of expressed mRNA in the absence of chemical substance (yeast gene YML125C): 1.9 | The level of expressed mRNA in the presence of chemical substance/The level of expressed mRNA in the absence of chemical substance (yeast gene YMR089C): 1.8 | The level of expressed mRNA in the presence of chemical substance/The level of expressed mRNA in the absence of chemical substance (yeast gene YMR105C): 0.9 | The level of expressed mRNA in the presence of chemical substance/The level of expressed mRNA in the absence of chemical substance (yeast gene YMR118C): 0.9 | The level of expressed mRNA in the presence of chemical substance/The level of expressed mRNA in the absence of chemical substance (yeast gene YMR261C, cells incubated two hours with the chemical substance): 0.8 | The level of expressed mRNA in the presence of chemical substance/The level of expressed mRNA in the absence of chemical substance (yeast gene YNL037C): 0.9 | The level of expressed mRNA in the presence of chemical substance/The level of expressed mRNA in the absence of chemical substance (yeast gene YNL071W): 1.1 | The level of expressed mRNA in the presence of chemical substance/The level of expressed mRNA in the absence of chemical substance (yeast gene YNL237W): 1.6 | The level of expressed mRNA in the presence of chemical substance/The level of expressed mRNA in the absence of chemical substance (yeast gene YNL331C): 2.3 | The level of expressed mRNA in the presence of chemical substance/The level of expressed mRNA in the absence of chemical substance (yeast gene YOL086C, cells incubated two hours with the chemical substance): 1.6 | The level of expressed mRNA in the presence of chemical substance/The level of expressed mRNA in the absence of chemical substance (yeast gene YOL126C): 1.4 | The level of expressed mRNA in the presence of chemical substance/The level of expressed mRNA in the absence of chemical substance (yeast gene YOL157C): 1.1 | The level of expressed mRNA in the presence of chemical substance/The level of expressed mRNA in the absence of chemical substance (yeast gene YOL165C): 3.0 | The level of expressed mRNA in the presence of chemical substance/The level of expressed mRNA in the absence of chemical substance (yeast gene YOR136W): 1.2 | The level of expressed mRNA in the presence of chemical substance/The level of expressed mRNA in the absence of chemical substance (yeast gene YOR221C): 1.0 | The level of expressed mRNA in the presence of chemical substance/The level of expressed mRNA in the absence of chemical substance (yeast gene YOR347C): 2.0 | The level of expressed mRNA in the presence of chemical substance/The level of expressed mRNA in the absence of chemical substance (yeast gene YPL031C, cells incubated two hours with the chemical substance): 0.7 | The level of expressed mRNA in the presence of chemical substance/The level of expressed mRNA in the absence of chemical substance (yeast gene YPL088W): 3.2 | The level of expressed mRNA in the presence of chemical substance/The level of expressed mRNA in the absence of chemical substance (yeast gene YPL171C): 1.4 | The level of expressed mRNA in the presence of chemical substance/The level of expressed mRNA in the absence of chemical substance (yeast gene YPL240C): 1.2 | The level of expressed mRNA in the presence of chemical substance/The level of expressed mRNA in the absence of chemical substance (yeast gene YPL271W): 0.8 | The level of expressed mRNA in the presence of chemical substance/The level of expressed mRNA in the absence of chemical substance (yeast gene YPR006C): 0.7 | The level of expressed mRNA in the presence of chemical substance/The level of expressed mRNA in the absence of chemical substance (yeast gene YPR026W): 3.1

— patent US8192962B2, “Processes for detecting toxic substances” (Daikin Industries, Ltd., priority 2001, dated 2012)
